“Also recorded” adds a separate entry of the source. Where only a bound is given, the exact number is not on record here.

Broadly, the LD50 is the dose at which mortality reaches 50%. Read a low LD50 as greater toxicity.

A short description of data set [1]: Hypotensive action. The format is in vivo. Conditions: for dose showing hypotensive action: in vivo.
Data set [2] can be described thus: Effect on muscular blood flow in cats. Conditions: cats weighing about 3 kg. It is filed as in vivo. The source says: (§1) The action on cerebral blood flow and muscular blood flow was examined with cats weighing about 3 kg.
The nature of data set [3]: in vivo. The note with it: for LD50: mouse, in vivo.
Data set [4] deals with Small intestine excised from guinea-pigs. Briefly: Inhibition of BaCl2-induced contraction of isolated smooth muscle (small intestine excised from guinea-pigs). The note with it: contracting substance BaCl2 2.00×10^-3 g/ml; effective concentration 1×10^-4 g/ml.
In data set [5] the test system is isolated smooth muscle. Briefly: Effect on contraction of isolated smooth muscle, overall. Set-up: species or system guinea-pigs.
The test system of data set [6] is Vessels excised from guinea-pigs. Kind of data set: Inhibition of adrenalin-induced contraction of isolated smooth muscle (vessels excised from guinea-pigs). Conditions: contracting substance Adrenalin 2.86×10^-6 g/ml; effective concentration 1×10^-5 g/ml.
The nature of data set [7]: Solubility in aqueous solution of tartaric acid (aptitude test as an injection). The format is physicochemical. Conditions: 0.25 weight percent. How it is done:
For the purpose of examining the solubility of the new compound N-(1-adamantyl methyl)-N'-cinnamyl piperazine in an aqueous solution of tartaric acid, the aqueous solutions in which 2, 4, 6 and 8 times molar of tartaric acid based on 1 mol of the new compound were contained were prepared and the compound was added so that its concentration should be 0.25 weight percent to each aqueous solution. Each aqueous solution was heated to 80° C and allowed to cool to a room temperature (about 20° C), then the solubility was evaluated. […] In addition, the pH value of 0.25 weight percent aqueous solution of the compound prepared by using 2 times mol of tartaric acid based on 1 molar of the compound was 3.10 and when an alkali was added to the aqueous solution, crystals began to separate at pH 3.80.

Data set [8] concerns Small intestine excised from guinea-pigs. Briefly: Inhibition of acetylcholine-induced contraction of isolated smooth muscle (small intestine excised from guinea-pigs). The note with it: contracting substance Acethylcholine 5.43×10^-4 g/ml; effective concentration 8.75×10^-6 g/ml.
A short description of data set [9]: Effect on cerebral blood flow in cats. The format is in vivo. Conditions: cats weighing about 3 kg.
Text: as §1

Data set [10] can be described thus: Stability in aqueous solution of tartaric acid. It is filed as physicochemical. As for the experimental part:
After heating a 0.25 weight percent aqueous solution of the new compound N-(1-adamantyl methyl)-N'-cinnamyl piperazine prepared by using 2 times mol of tartaric acid based on 1 mol of this compound, the solution was allowed to cool to a room temperature (about 20° C). Then, the pH value was adjusted to 8-9 with 1/10 N aqueous solution of sodium hydroxide.

Data set [11] relates to Small intestine excised from guinea-pigs. Briefly: Inhibition of histamine-induced contraction of isolated smooth muscle (small intestine excised from guinea-pigs). The note with it: contracting substance Histamine 1.00×10^-7 g/ml; effective concentration 1×10^-4 g/ml.
Where [12] appears, read: 0.25 weight percent, 2 times mol tartaric acid, heated, cooled, pH adjusted to 8-9, room temperature for 7 days.

In the case of `C(=C\c1ccccc1)/CN1CCN(C(c2ccccc2)c2ccccc2)CC1` [Cinnarizine, reference compound], the “dose showing hypotensive action” value in data set [1] turned out to be 0.5 mg/kg.

Turning to `C(=C\c1ccccc1)/CN1CCN(CC23CC4CC(CC(C4)C2)C3)CC1` [N-(1-adamantylmethyl)-N'-cinnamyl piperazine], the “blood flow of gastrocnemius muscle” value in data set [2] is given as “clearly increased blood flow of gastrocnemius muscle”. Further, the “action on blood flow of gastrocnemius muscle compared with Cinnarizine” value in [2] (versus Cinnarizine) is “more significant than that of Cinnarizine”. Further, in [3] (general statement), the toxicity entry was “low toxicity; also recorded: very low toxicity compared with conventional cerebral vasodilators”. Also, the results for the LD50 in data set [3] (iv) and in data set [3] (po) were 78.8 mg/kg and over 10000 mg/kg, respectively. The Inhibitory rate came to 77.23% in data set [4], 3.10% in data set [6], 25.0% in [8] and 95.0% in data set [11]. The “smooth muscle relaxing action” value in data set [5] is listed as “recognized to possess smooth muscle relaxing action”. Further, the “pH value of aqueous solution” value in [7] (2 times mol of tartaric acid) worked out at 3.10. For the same compound, the “pH at which crystals began to separate” value in data set [7] (2 times mol of tartaric acid, alkali added) was 3.80. In addition, the solubility result in [7] (aqueous tartaric acid, 2, 4, 6 and 8 times molar, heated to 80° C, cooled to about 20° C) is “soluble in all of the above aqueous solutions of tartaric acid”. The “blood flow of cerebral cortex” value in [9] (1 mg/kg) is given as “clearly increased blood flow of cerebral cortex”. Besides, the “action on blood flow of cerebral cortex compared with Cinnarizine” value in [9] (versus Cinnarizine 1 mg/kg) is “more significant than that induced by Cinnarizine”. The “side effects such as an excessive hypotension” value in data set [1] (general statement) is “little side effects such as an excessive hypotension”. Besides, the “dose showing hypotensive action” value in [1] is over 5 mg/kg. Also, the “hypotensive action compared with Cinnarizine” value in [1] (versus Cinnarizine) is “clearly weaker than that of Cinnarizine”. Moreover, the “change in infrared absorption spectrum and nuclear magnetic resonance spectrum” value in data set [10] (setting [12]) is “No change”. In data set [10] (setting [12]), the “stability by thin layer chromatography” value is listed as “unaffected”. For the same compound, the “stability against heat, alkali and acid” value in [10] (general statement) was “good stability against heat, alkali and acid; also recorded: high stability against heat, alkali and acid”. For the same compound, the “stability in an aqueous solution of tartaric acid” value in data set [10] (overall conclusion) was “exist stably in an aqueous solution of tartaric acid”.

Source of the values: US4001223A, “Adamantane-piperazine derivatives” (Idemitsu Kosan Co., Ltd., priority 1975, dated 1977).
